Values joined by “and” are separate entries in the source; they are usually repeats but may differ in a detail not shown here. Equal entries are not always repeated. Where two headings read alike, the source gives them in different places.
What was measured:
[1] = tested on: Mouse embryonic stem cells (ESCs); assay: Afatinib pre-treatment of mouse embryonic stem cells before M22 toxicity challenge; type: cell-based
Experimental: Mouse embryonic stem cells (ESCs) were pre-treated with Afatinib in concentrations of 1 nM, 7.5 nM, 15 nM, 30 nM, and 75 nM. The ESCs were then subjected to various concentrations of M22, including a lethal challenge of 6% in normal culture media.

[2] = tested on: TJ1060 worms; assay: Worms on 10% M22 +/- Afatinib in liquid survival medium; type: in vivo, C. elegans; parameters: Mean (survival): unit not given here
Experimental: FIG. 6 is a histogram. Sterile young adult worms (TJ1060) were put into liquid survival medium with 10% M22 and varying concentrations of Afatinib and followed until all were dead. Data from 4 replicate blinded experiments are shown.
Young adult worms from TJ1060 were grown on agar plates at 25° C. with varying concentrations of Afatinib and put into liquid survival medium with 10% M22+/−Afatinib at 20° C. They were followed until all were dead. Data from 4 replicate experiments are shown; experiments were blinded.

[3] = tested on: TJ1060 worms; assay: Survival on Afatinib on agar plates; type: in vivo, C. elegans; parameters: Mean (survival): unit not given here; conditions: for Mean (survival) / survival (vs no Afatinib control): agar plates
Experimental: Eggs from TJ1060 were put onto NGM agar plates with varying concentrations of Afatinib at 25° C. On day 3, sterile staged young adult worms were moved to agar plates with Afatinib at 20° C. and followed until all were dead.

[4] = tested on: ERB3/4; conditions: cited from earlier work
[5] = tested on: HSBP1 protein; conditions: Arai et al., Chem. Sci., 2016; cited from earlier work
[6] = target: MYH9 protein (Homo sapiens, UniProt P35579); conditions: Chiu et al., Molecular Oncology 6, 2012; cited from earlier work
[7] = 10% M22 + Afatinib 10 nM, summary of 4 experiments
[8] = 10% M22 + Afatinib 100 nM, summary of 4 experiments
[9] = 10% M22 + Afatinib 1000 nM, summary of 4 experiments

Sequence of MYH9 protein (P35579 whole entry, species assumed): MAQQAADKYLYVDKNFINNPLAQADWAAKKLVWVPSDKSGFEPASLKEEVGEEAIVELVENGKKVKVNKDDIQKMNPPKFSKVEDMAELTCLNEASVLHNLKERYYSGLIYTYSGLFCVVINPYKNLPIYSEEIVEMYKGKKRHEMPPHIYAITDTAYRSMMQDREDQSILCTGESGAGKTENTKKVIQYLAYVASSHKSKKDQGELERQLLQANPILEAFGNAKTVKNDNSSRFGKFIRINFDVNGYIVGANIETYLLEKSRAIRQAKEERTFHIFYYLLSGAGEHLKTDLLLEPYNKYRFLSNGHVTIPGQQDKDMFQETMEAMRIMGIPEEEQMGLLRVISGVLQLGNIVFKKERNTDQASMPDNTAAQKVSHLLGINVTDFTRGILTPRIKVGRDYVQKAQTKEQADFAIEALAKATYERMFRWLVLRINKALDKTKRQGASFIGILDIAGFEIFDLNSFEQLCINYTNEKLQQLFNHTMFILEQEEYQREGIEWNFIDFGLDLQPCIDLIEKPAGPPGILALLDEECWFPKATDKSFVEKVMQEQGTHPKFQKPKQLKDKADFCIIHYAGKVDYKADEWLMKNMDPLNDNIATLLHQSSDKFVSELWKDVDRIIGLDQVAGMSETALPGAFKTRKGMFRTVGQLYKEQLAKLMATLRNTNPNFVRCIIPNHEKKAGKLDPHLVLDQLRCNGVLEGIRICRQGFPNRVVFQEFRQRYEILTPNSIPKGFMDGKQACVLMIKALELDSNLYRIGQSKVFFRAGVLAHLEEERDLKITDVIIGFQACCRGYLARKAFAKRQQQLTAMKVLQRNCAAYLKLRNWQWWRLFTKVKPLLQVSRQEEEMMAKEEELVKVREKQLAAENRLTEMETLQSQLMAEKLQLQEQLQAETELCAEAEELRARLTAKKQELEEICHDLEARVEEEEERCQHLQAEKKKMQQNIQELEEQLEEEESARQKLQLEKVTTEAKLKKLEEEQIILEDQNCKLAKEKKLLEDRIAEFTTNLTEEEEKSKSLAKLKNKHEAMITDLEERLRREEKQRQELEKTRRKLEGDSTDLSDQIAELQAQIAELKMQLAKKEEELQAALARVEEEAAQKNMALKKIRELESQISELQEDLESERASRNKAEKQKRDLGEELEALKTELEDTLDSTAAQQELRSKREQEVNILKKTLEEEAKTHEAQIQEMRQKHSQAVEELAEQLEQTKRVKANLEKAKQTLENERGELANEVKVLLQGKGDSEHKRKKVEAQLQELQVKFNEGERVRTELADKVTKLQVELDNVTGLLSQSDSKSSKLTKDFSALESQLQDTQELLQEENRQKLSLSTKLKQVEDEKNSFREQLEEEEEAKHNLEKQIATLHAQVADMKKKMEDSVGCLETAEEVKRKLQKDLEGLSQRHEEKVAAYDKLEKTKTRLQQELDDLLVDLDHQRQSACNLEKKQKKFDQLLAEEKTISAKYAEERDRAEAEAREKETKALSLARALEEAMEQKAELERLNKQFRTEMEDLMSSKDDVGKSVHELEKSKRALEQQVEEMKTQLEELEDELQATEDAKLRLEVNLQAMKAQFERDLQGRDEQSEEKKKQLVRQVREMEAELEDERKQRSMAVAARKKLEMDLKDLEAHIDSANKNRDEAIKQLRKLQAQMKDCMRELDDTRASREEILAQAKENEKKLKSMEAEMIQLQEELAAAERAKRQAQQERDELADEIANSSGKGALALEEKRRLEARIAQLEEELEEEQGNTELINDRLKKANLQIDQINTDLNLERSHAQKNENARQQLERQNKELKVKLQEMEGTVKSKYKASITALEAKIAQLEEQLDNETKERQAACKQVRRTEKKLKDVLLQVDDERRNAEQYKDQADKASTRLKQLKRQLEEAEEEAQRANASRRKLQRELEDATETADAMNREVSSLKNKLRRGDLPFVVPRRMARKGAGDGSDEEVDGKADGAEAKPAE

Compound: CN(C)C/C=C/C(=O)Nc1cc2c(Nc3ccc(F)c(Cl)c3)ncnc2cc1O[C@H]1CCOC1 [Afatinib]
- resistance to M22 toxicity ([1]; ESCs pre-treated with Afatinib 1-75 nM, lower M22 concentrations (FIG. 1)): increased resistance to M22 toxicity
- survival of otherwise lethal M22 challenge ([1]; ESCs pre-treated with Afatinib, 6% M22 in normal culture media (FIG. 1)): survived an otherwise lethal M22 challenge
- survival of cells after cryopreservative toxicity challenge with M22 (FIG. 1) ([1]; cells treated with Afatinib prior to M22 challenge): increased survival
- Mean (survival) ([2]; 10% M22 + Afatinib 10 nM, liquid, 20° C., single experiments): 12.4 and 12.3 and 14.6 and 10.4
- resistance (vs no Afatinib control) ([2]; 10% M22 + Afatinib 10 nM, single experiments): ns and less
- Mean (survival) [2, 7]: 12.5
- resistance (vs no Afatinib control) [2, 7]: ns
- Mean (survival) ([2]; 10% M22 + Afatinib 100 nM, liquid, 20° C., single experiments): 13.5 and 13.2 and 15.3 and 11.3
- resistance (vs no Afatinib control) ([2]; 10% M22 + Afatinib 100 nM, single experiments): more and ns
- Mean (survival) [2, 8]: 13.4
- resistance (vs no Afatinib control) [2, 8]: more
- Mean (survival) ([2]; 10% M22 + Afatinib 1000 nM, liquid, 20° C., single experiments): 13.2 and 13.0 and 15.6 and 10.3
- resistance (vs no Afatinib control) ([2]; 10% M22 + Afatinib 1000 nM, single experiments): ns and more
- Mean (survival) [2, 9]: 13.0
- resistance (vs no Afatinib control) [2, 9]: ns
- protection of worms in 10% M22 ([2]; Afatinib 10 or 1000 nm): not
- survival in 10% M22 compared with control of no afatinib (FIG. 6) ([2]; Afatinib at 100 nM, 4 replicate blinded experiments, p<0.001): significantly better than control of no afatinib
- protection of worms in 10% M22 ([2]; Afatinib concentration of 100 nm): protects worms in 10% M22
- Mean (survival) ([3]; Afatinib 10 nM, no M22, single experiments): 20.5 and 19.7 and 19.1 and 22.1
- survival (vs no Afatinib control) ([3]; Afatinib 10 nM, single experiments): less and ns
- Mean (survival) ([3]; Afatinib 10 nM, summary): 20.3
- survival (vs no Afatinib control) ([3]; Afatinib 10 nM, summary): ns
- Mean (survival) ([3]; Afatinib 20 nM, no M22, single experiment): 21.1
- survival (vs no Afatinib control) ([3]; Afatinib 20 nM, single experiment): ns
- Mean (survival) ([3]; Afatinib 100 nM, no M22, single experiments): 19.4 and 21.1 and 19.8 and 21.8
- survival (vs no Afatinib control) ([3]; Afatinib 100 nM, single experiments): less and more and ns
- Mean (survival) ([3]; Afatinib 100 nM, summary): 20.4
- survival (vs no Afatinib control) ([3]; Afatinib 100 nM, summary): ns
- Mean (survival) ([3]; Afatinib 1000 nM, no M22, single experiments): 20.8 and 21.7 and 19.4 and 20.0
- survival (vs no Afatinib control) ([3]; Afatinib 1000 nM, single experiments): ns and more and less
- Mean (survival) ([3]; Afatinib 1000 nM, summary): 20.6
- survival (vs no Afatinib control) ([3]; Afatinib 1000 nM, summary): less
- longevity effect ([3]; worms, Afatinib without M22): did not have a longevity effect
- IC50 ([4]; read-out: IC50): ~1 nM
- IC50 ([4]; read-out: IC50 DOSE): 1 nM

Compound: COc1ccc(-c2cc(=O)c3c(O[C@@H]4O[C@H](CO[C@@H]5OC[C@@H](O)[C@H](O)[C@H]5O)[C@@H](O)[C@H](O)[C@H]4O)cc(OC)cc3o2)cc1 [Agalloside]
- inhibition of HSBP1 protein [5]: Agalloside inhibits the HSBP1

Compound: Cc1ccc2c(c1)C(=O)C1(O)CCN(c3ccccc3)C1=N2 (stereo not shown) [Blebbistatin]
- inhibition of MYH9 protein [6]: Blebbistatin inhibits the MYH9

— patent US20220061311A1, “COMPOSITIONS AND METHODS FOR REDUCING CRYOPRESERVATION TOXICITY” (The Regents of the University of Colorado, a body, priority 2018, published 2022)
